Source: EP0085843A1, “Antimycosic agent” (BAYER AG, priority 1982, dated 1983)

Tests used:
Candida = assay: Antifungal in-vivo activity (oral) in mouse candidosis; design: species or system Mäuse vom Typ SPF-CF1; key to Wirkung (Ueberlebende am 6.Tag p.i.): +++++: = sehr gute Wirkung = 90 % Ueberlebende am 6.Tag p.i.; ++++: = gute Wirkung = 80 % Ueberlebende am 6.Tag p.i.; +++: = Wirkung = 60 % Ueberlebende am 6.Tag p.i.; ++: = schwache Wirkung = 40 % Ueberlebende am 6.Tag p.i.; +: = Spur Wirkung = unter 40% " " " "; k.W.: = keine Wirkung; conditions: for Wirkung (Ueberlebende am 6.Tag p.i.): 50 - 100 mg/kg one hour before and seven hours after i.v. infection; for Wirkung compared with known compounds (A), (B), (C), (D): mouse candidosis
Experimental: Mäuse vom Typ SPF-CF1 wurden intravenös mit 1 - 2 x 10^6 logarithmisch wachsenden Candida-Zellen, die in physiologischer Kochsalzlösung suspendiert werden, infiziert. Eine Stunde vor und sieben Stunden nach der Infektion werden die Tiere mit jeweils 50 - 100 mg/kg Körpergewicht der Präparate oral behandelt.
Unbehandelte Tiere starben 3 bis 6 Tage post infektionem. Die Ueberlebensrate am 6.Tag post infektionem betrug bei unbehandelten Kontrolltieren etwa 5 %.

[1] = test system: Trichophyton mentagrophytes; assay: In-vivo activity (local) in experimental guinea pig trichophytosis; design: species or system Meerschweinchen; key to Wirkung (Infektionszeichen): +++++: sehr gute Wirkung = keine Infektionszeichen am 12.-15.Tag p.i.; ++++: gute Wirkung = geringe Rötung, vereinzelt Schuppen; +++: Wirkung = Rötung, Schuppung, ohne Haarausfall; ++: schwache Wirkung = Rötung, Schuppung, Haarausfall; +: Spur Wirkung = flächiger Haarausfall, entzündliche Hautreaktion; conditions: for Wirkung (Infektionszeichen): 1x daily from day 3 p.i., 15%-ige Lösung in Dimethylsulfoxid : Glycerin = 1 : 4; for Wirkung: trichophytosis model
[2] = test system: Dermatophyten, Schimmelpilze, Hefen; assay: Antifungal in-vitro activity, serial dilution test, overall statement; type: cell-based
Experimental: Versuchsbeschreibung: • Die in-vitro-Prüfungen wurden im Reihenverdünnungstest mit Keiminokula von durchschnittlich 5 x 10^4 Keimen/ml Substrat durchgeführt. Als Nährmedium dienten • a) für Dermatophyten und Schimmelpilze: Sabouraud's milieu d'epreuve • b) für Hefen: • Fleischextrakt-Traubenzucker-Bouillon.
Die Bebrütungstemperatur betrug 20°C, die Bebrütungsdauer lag bei 24 bis 96 Stunden bei Hefen und 96 Stunden bei Dermatophyten und Schimmelpilzen.

SMILES	Wirkung (Ueberlebende am 6.Tag p.i.) (Candida)	Wirkung compared with known compounds (A), (B), (C), (D) (Candida)	Wirkung (Infektionszeichen) [1]	Wirkung [1]	antimykotische Wirkung compared with known compounds (A), (B), (C), (D) [2]
Cc1ccc(OCC(O)(Cn2cncn2)C(C)(C)C)cc1 (centres unmarked) [(A), reference compound]	k.W.				
Cc1cc(Cl)ccc1OCC(O)(Cn1cncn1)C(C)(C)C (centres unmarked) [(C), reference compound]	k.W.				
COC(COc1ccc(Cl)cc1C)(Cn1cncn1)C(C)(C)C (centres unmarked) [Beispiel 1, 2-(4-Chlor-2-methyl-phenoxymethyl)-3,3-dimethyl-2-methoxy-1-(1,2,4-triazol-1-yl)-butan]	+++ (= Wirkung = 60 % Ueberlebende am 6.Tag p.i.)	bessere Wirkung	++++	gute Wirkung	bessere antimykotische Wirkung
COC(COc1ccc(Cl)cc1)(Cn1cncn1)C(C)(C)C (centres unmarked) [Beispiel 2]	++++ (= gute Wirkung = 80 % Ueberlebende am 6.Tag p.i.)	bessere Wirkung	++++	gute Wirkung	
COC(COc1ccc(Cl)cc1Cl)(Cn1cncn1)C(C)(C)C (centres unmarked) [Beispiel 3]	+++ (= Wirkung = 60 % Ueberlebende am 6.Tag p.i.)	bessere Wirkung	++++	gute Wirkung	bessere antimykotische Wirkung
COC(CCc1ccc(Cl)cc1)(Cn1cncn1)C(C)(C)C (centres unmarked) [Beispiel 4]	+++++ (= sehr gute Wirkung = 90 % Ueberlebende am 6.Tag p.i.)	bessere Wirkung	++++	gute Wirkung	bessere antimykotische Wirkung
COC(CCc1ccc(F)cc1)(Cn1cncn1)C(C)(C)C (centres unmarked) [Beispiel 5]	++++ (= gute Wirkung = 80 % Ueberlebende am 6.Tag p.i.)	bessere Wirkung	++++	gute Wirkung	bessere antimykotische Wirkung
